Laboratory results taken from ChEMBL document CHEMBL1629478, “Novel alkyl- and arylcarbamate derivatives with N-benzylpiperidine and N-benzylpiperazine moieties as cholinesterases inhibitors” (Eur J Med Chem, 2010).
The source made the active and inactive calls. The rule behind the calls is not given here.

Key:
[1] = biological target: Acetylcholinesterase (Electrophorus electricus) (UniProt O42275); assay: Inhibition of electric eel AChE at 100 uM preincubated for 5 mins by Ellman's method
[2] = biological target: Cholinesterase (Equus caballus) (UniProt P81908); assay: Inhibition of horse serum BChE at 100 uM preincubated for 5 mins by Ellman's method
Cholinesterase = Cholinesterase (Equus caballus, UniProt P81908)
Description: Inhibition of horse serum BChE preincubated for 5 mins by Ellman's method

[3] = biological target: Acetylcholinesterase (Electrophorus electricus) (UniProt O42275); assay: Non-competitive inhibition of electric eel AChE by Lineweaver-Burk plot analysis
[4] = biological target: Cholinesterase (Equus caballus) (UniProt P81908); assay: Mixed-type inhibition of horse serum BChE by Lineweaver-Burk plot analysis

Chain of Cholinesterase (P81908 whole entry): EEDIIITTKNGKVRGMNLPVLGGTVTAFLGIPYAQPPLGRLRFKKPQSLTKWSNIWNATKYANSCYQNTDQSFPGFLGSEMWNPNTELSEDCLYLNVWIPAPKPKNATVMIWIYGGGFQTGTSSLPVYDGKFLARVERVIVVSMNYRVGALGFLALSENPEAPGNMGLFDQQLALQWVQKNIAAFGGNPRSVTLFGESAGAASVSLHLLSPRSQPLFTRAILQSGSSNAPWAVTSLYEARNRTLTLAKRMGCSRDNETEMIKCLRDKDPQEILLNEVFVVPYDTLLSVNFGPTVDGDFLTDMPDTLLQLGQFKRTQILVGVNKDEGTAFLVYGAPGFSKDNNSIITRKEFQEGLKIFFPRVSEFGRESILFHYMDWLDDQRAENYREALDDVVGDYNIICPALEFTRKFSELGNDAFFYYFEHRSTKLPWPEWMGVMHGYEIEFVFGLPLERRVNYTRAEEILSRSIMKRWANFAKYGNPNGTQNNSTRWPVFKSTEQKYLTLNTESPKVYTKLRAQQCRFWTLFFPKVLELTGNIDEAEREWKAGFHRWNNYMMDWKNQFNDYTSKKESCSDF
Chain of Cholinesterase (Equus caballus) (P81908 whole entry): as above
Chain of Acetylcholinesterase (Electrophorus electricus) (O42275 24-633 limits assumed): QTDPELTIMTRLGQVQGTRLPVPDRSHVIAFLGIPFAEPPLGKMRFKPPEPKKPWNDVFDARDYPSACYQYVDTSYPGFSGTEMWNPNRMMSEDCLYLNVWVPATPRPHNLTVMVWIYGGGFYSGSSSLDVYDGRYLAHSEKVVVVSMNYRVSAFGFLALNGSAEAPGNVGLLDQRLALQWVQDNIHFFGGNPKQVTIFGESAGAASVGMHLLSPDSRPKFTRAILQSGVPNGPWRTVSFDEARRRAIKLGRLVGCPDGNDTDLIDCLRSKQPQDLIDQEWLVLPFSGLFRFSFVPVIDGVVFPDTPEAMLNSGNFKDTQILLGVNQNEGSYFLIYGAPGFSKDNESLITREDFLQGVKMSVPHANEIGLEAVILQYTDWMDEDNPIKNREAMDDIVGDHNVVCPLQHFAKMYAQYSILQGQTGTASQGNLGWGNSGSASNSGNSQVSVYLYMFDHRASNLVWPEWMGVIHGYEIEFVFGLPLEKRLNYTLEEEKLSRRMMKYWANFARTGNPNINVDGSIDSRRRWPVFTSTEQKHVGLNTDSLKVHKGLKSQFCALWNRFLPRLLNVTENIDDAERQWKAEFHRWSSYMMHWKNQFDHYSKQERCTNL

Row | SMILES | inhibition [1] | inhibition [2] [%] | IC50 (Cholinesterase) [µM] | inhibition [3] | inhibition [4]
1 | Cc1ccccc1NC(=O)Oc1ccc(CC(=O)NC2CCN(Cc3ccccc3)CC2)cc1 | 24.7% | 46.9 | – | – | –
2 | CCCNC(=O)Oc1ccc(CC(=O)N2CCN(Cc3ccccc3)CC2)cc1 | inactive | 88.3 | 32.4 | – | –
3 | CCNC(=O)Oc1cccc(CC(=O)NC2CCN(Cc3ccccc3)CC2)c1 | 28.5% | 68.6 | 37.2 | – | –
4 | CC(C)NC(=O)Oc1ccc(CC(=O)NC2CCN(Cc3ccccc3)CC2)cc1 | 19.2% | 63.1 | 18.2 | – | –
5 | CC(C)NC(=O)Oc1cccc(CC(=O)N2CCN(Cc3ccccc3)CC2)c1 | inactive | 77.7 | 35.5 | – | –
6 | O=C(Cc1ccc(O)cc1)N1CCN(Cc2ccccc2)CC1 | inactive | 45.3 | – | – | –
7 | CCCNC(=O)Oc1ccc(CC(=O)NC2CCN(Cc3ccccc3)CC2)cc1 | 33.8% | 95.1 | 9.33 | – | –
8 | CC(C)NC(=O)Oc1cccc(CC(=O)NC2CCN(Cc3ccccc3)CC2)c1 | 34.9% | 72.2 | 29.5 | – | –
9 | CN(C)C(=O)Oc1ccc(CC(=O)N2CCN(Cc3ccccc3)CC2)cc1 | inactive | 32.5 | – | – | –
10 | O=C(Cc1cccc(O)c1)NC1CCN(Cc2ccccc2)CC1 | 38.1% | 49.8 | – | – | –
11 | CN(C)C(=O)Oc1cccc(CC(=O)N2CCN(Cc3ccccc3)CC2)c1 | inactive | 79 | 23.4 | – | –
12 | CCCCNC(=O)Oc1ccc(CC(=O)NC2CCN(Cc3ccccc3)CC2)cc1 | 43.7% | 63.4 | 11.7 | – | –
13 | CCNC(=O)Oc1cccc(CC(=O)N2CCN(Cc3ccccc3)CC2)c1 | inactive | 62.5 | 55 | – | –
14 | CC(C)NC(=O)Oc1ccc(CC(=O)N2CCN(Cc3ccccc3)CC2)cc1 | inactive | 72.2 | 52.5 | – | –
15 | O=C(Cc1cccc(O)c1)N1CCN(Cc2ccccc2)CC1 | inactive | 31.5 | – | – | –
16 | CCNC(=O)Oc1ccc(CC(=O)N2CCN(Cc3ccccc3)CC2)cc1 | inactive | 83.4 | 43.7 | – | –
17 | CN(C)C(=O)Oc1ccc(CC(=O)NC2CCN(Cc3ccccc3)CC2)cc1 | 46.2% | 89.8 | 8.91 | – | –
18 | CN(C)C(=O)Oc1cccc(CC(=O)NC2CCN(Cc3ccccc3)CC2)c1 | 50.5% | 82.1 | 21.9 | Active | Active
19 | CCCCNC(=O)Oc1cccc(CC(=O)N2CCN(Cc3ccccc3)CC2)c1 | inactive | 92.7 | 10 | – | –
20 | CCCCNC(=O)Oc1cccc(CC(=O)NC2CCN(Cc3ccccc3)CC2)c1 | 39.9% | 92 | 5.75 | – | –
21 | CCCCNC(=O)Oc1ccc(CC(=O)N2CCN(Cc3ccccc3)CC2)cc1 | inactive | 83.1 | 16.6 | – | –
22 | O=C(Cc1ccc(O)cc1)NC1CCN(Cc2ccccc2)CC1 | 15.2% | 45.6 | – | – | –
23 | CCNC(=O)Oc1ccc(CC(=O)NC2CCN(Cc3ccccc3)CC2)cc1 | 23.4% | 90.4 | 10.7 | – | –
